Measured values published in patent publication US10138226B2, “Benzimidazol-2-amines as MIDH1 inhibitors” (Bayer Pharma Aktiengesellschaft, priority 2014, dated 2018).

What was measured:
[1] = molecular target: IDH1 R132H enzyme (Homo sapiens (Human), UniProt O75874, R132H); assay: Mutant IDH1 R132H biochemical assay; details: NADPH consumption, luminescent readout, 250 μM α-KG, 1 μM NADPH, 32° C., 30 minutes, test range 0.002-10 μM; note: 1.5 nM enzyme
Description: mIDH1 catalyzes the NADPH-dependent reduction of alpha-ketoglutarate (α-KG) to (2R)-2-hydroxyglutarate (2-HG). NADPH consumption was measured by luminescent readout.
The biochemical reactions were performed at 32° C. in 384-well plates using a reaction volume of 41 μl and the following assay buffer conditions: 50 mM Tris pH 7.5, 100 mM NaCl, 20 mM MgCl2, 0.05% BSA, 0.01% Brij, 1 μM NADPH, and 250 μM α-KG. […] Test compounds were used in a concentration range between 0.002 and 10 μM. The final DMSO concentration was 2.4%.
The reaction was incubated for 30 minutes, then 40 μl of detection mix (0.75 μg/ml Luciferase, 0.02 U/ml Oxidoreductase, 4 μg/ml FMN, 2 μl/ml Decanal/Ethanol, 50 mM Tris pH 7.5, 0.5% Glycerin, 0.01% Tween-20, 0.05% BSA) was added. Luminescence was measured on a luminescent reader (10 seconds measuring time, 1 second integration period, 30% sensitivity). The decrease in luminescence is proportional to mIDH1 activity. IC50 values are determined by interpolation from plots of relative luminescence versus inhibitor concentration.

[2] = system: LN229 R132H cells overexpressing mutated isocitrate dehydrogenase (mIDH); assay: Mutant IDH1 cellular assay (2-HG levels in medium); assay type: cell-based; details: 2-HG in medium of LN229 R132H cells, 24 hours incubation, fluorescence readout
Description: Mutant IDH1 Cellular Assay
Levels of (2R)-2-hydroxyglutarate (2HG) were measured in medium of a cell line with overexpression of mutated isocitrate dehydrogenase (mIDH) protein. mIDH catalyzes the NADPH-dependent reduction of alpha-ketoglutarate to 2-HG. Cells (LN229 R132H, Mohrenz et al., Apoptosis (2013) 18:1416-1425) were grown in DMEM containing 10% FCS. They were harvested by trypsin and seeded into 96-well plates. Cells were incubated overnight at 37° C. in 5% CO2. The next day test compounds were added to each cell well. The final concentration of DMSO was 0.1% and DMSO controls were included. The plates were then placed in an incubator for 24 hours.
2-HG was measured according to Balss et al. (Acta Neuropathol (2012) 124: 883-891). Briefly, HClO4 was added to each well and the plates were centrifuged. Aliquots are removed and incubated with hydroxyglutarate dehydrogenase (HGDH), diaphorase, NAD+, and resazurin. The conversion of resazurin to resorufin was detected by fluorescence spectroscopy at Ex 540 nm Em 600 nm. The increase in fluorescence is proportional to 2-HG production. IC50 values are determined by interpolation from plots of relative fluorescence vs inhibitor concentration.

IDH1 R132H enzyme, sequence (O75874 whole entry R132H): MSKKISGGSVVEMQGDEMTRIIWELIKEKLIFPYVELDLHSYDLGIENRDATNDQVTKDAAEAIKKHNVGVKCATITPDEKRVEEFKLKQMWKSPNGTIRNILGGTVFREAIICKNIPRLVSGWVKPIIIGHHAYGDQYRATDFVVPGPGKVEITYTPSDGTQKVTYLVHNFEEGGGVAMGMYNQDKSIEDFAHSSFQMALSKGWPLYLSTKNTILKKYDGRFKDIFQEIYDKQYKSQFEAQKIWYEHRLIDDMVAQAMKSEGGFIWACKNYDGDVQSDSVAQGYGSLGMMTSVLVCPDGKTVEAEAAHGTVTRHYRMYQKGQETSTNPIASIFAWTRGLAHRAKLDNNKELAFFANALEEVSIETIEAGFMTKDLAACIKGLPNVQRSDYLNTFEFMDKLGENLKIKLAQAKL

SMILES: COC(=O)CN(C)C(=O)c1ccc2nc(Nc3ccc(OC(F)(F)F)cc3)n([C@H]3C[C@@H](C)CC(C)(C)C3)c2c1 (racemic) [Example 2-9, (±) methyl N-methyl-N-[(2-{[4-(trifluoromethoxy)phenyl]amino}-1-[(cis)-3,3,5-trimethylcyclohexyl]-1H-benzimidazol-6-yl)carbonyl]glycinate]
- IC50 [1]: 250 nM
- IC50 ([2]; Homo sapiens, LN-229, 24 h): 9000 nM

SMILES: C[C@@H]1C[C@H](n2c(Nc3ccc(OC(F)(F)F)cc3)nc3ccc(C(=O)N(C)C)cc32)CC(C)(C)C1 (racemic) [Example 2-20, (±) N,N-dimethyl-2-{[4-(trifluoromethoxy)phenyl]amino}-1-[(cis)-3,3,5-trimethylcyclohexyl]-1H-benzimidazole-6-carboxamide]
- IC50 [1]: 100 nM
- IC50 ([2]; Homo sapiens, LN-229, 24 h): 2000 nM

SMILES: C[C@@H]1C[C@H](n2c(Nc3ccc(OC(F)(F)F)cc3)nc3ccc(C(=O)N(C)C)cc32)CC(C)(C)C1 (single isomer, unassigned; enantiomer a) [Example 2-20-1, (±) N,N-dimethyl-2-{[4-(trifluoromethoxy)phenyl]amino}-1-[(cis)-3,3,5-trimethylcyclohexyl]-1H-benzimidazole-6-carboxamide, enantiomer A]
- IC50 [1]: 80 nM
- IC50 [2]: 1800 nM

SMILES: C[C@@H]1C[C@H](n2c(Nc3ccc(OC(F)(F)F)cc3)nc3ccc(C(=O)N4CCOCC4)cc32)CC(C)(C)C1 (single isomer, unassigned; enantiomer b) [Example 2-16-2, morpholin-4-yl(2-{[4-(trifluoromethoxy)phenyl]amino}-1-[(cis)-3,3,5-trimeethylcyclohexyl]-1H-benzimidazol-6-yl)methanone, enantiomer B]
- IC50 ([2]; Homo sapiens, LN-229, 24 h): 400 nM

SMILES: C[C@@H]1C[C@H](n2c(Nc3ccc(OC(F)(F)F)cc3)nc3ccc(C(=O)N(C)C)cc32)CC(C)(C)C1 (single isomer, unassigned; enantiomer b) [Example 2-20-2, (±) N,N-dimethyl-2-{[4-(trifluoromethoxy)phenyl]amino}-1-[(cis)-3,3,5-trimethylcyclohexyl]-1H-benzimidazole-6-carboxamide, enantiomer B]
- IC50 [1]: 200 nM
- IC50 [2]: 4300 nM
